Like-named read-outs stand apart in the source and are kept apart here.
Columns and labels:
[1] = target: glycine/NMDA receptor; assay: 1 μM glycine-stimulated [3H]-MK801 binding assay (glycine/NMDA receptor); parameters: species or system rat; conditions: for Ki: glycine/NMDA receptor binding; for potency relative to 5,7-dichlorokynurenic acid (DCK): % of DCK
Method: This assay takes advantage of the fact that the binding of [^3 H]-MK801 to the PCP receptor inside the pore of the NMDA channel is dependent on the presence of both glutamate and glycine. In the absence of glycine but in the presence of glutamate, [^3 H]-MK801 cannot bind effectively to the PCP receptor, because the NMDA channel remains closed and access of [^3 H]-MK801 to the PCP receptor inside the closed channel pore is severely restricted.
The assay is conducted using rat brain membrane homogenates which are enriched in NMDA receptors. The membranes are prepared as follows. Frozen rat brains obtained from Pel-Freez, Rogers, Arkansas) are homogenized in 15 volumes (w/v) of ice cold 0.32M sucrose. The homogenate is spun at 1,000×g for ten minutes. The supernatant is collected and spun for 20 minutes at 44,000×g. The pellet is suspended in 15 volumes of water (relative to original brain weight). The homogenate is again spun at 44,000×g for twenty minutes. The pellet is resuspended in 5 volumes of water and the suspension is freeze-thawed 2 times. After the final thaw cycle, the suspension is brought to 15 volumes with water and spun at 44,000×g for twenty minutes. The pellet is resuspended in 5 volumes of ice-cold 10 mM HEPES, and is titrated to pH 7.4 with KOH containing 0.04% Triton X-100. Membranes are incubated with the Triton/HEPES buffer at 37° C. for 15 minutes. The volume is then brought to 15 with ice-cold 10 mM HEPES, pH 7.4, and spun/washed three times with spins of 44,000×g between washes. The final pellet is suspended in three volumes of 50 mM HEPES, pH 7.4 and the protein concentration is determined with a standard dye-binding protein assay (Bio-Rad, Richmond, Calif.). The suspension is stored at-80° C. until used. Only HPLC grade water is used for all buffers and suspensions/washings. The extensive washings are necessary to remove as much endogenous glycine from the membrane preparation as possible.
Nonspecific binding is defined as the […] presence of PCP (final concentration: 100 μM). To determine the effect of 1 μM glycine on the binding of [3H]-MK801, bound radioactivity in the presence of 10 μM glutamate alone (final concentration) is subtracted from the bound radioactivity in the presence of both 10 μM glummate and 1 μM glycine (final concentration). A 500 nM concentration (final) of 5,7-dichlorokynurenic (DCK) acid is added to all assay tubes. This concentration of the glycine antagonist DCK "buffers" most of the residual endogenous glycine that is not removed by the extensive washing steps that are carried out during the membrane preparation procedure.
The assays are incubated for 120 minutes at room temperature after which time the membrane-bound radioactivity is isolated from the free radioactivity by vacuum filtration through Whatman glass fiber filters that had been pretreated with 0.3% polyethyleneimine. Filtration is accomplished using a Brandel 48 well cell harvester. Filtered membranes are washed three times with 3 ml each of ice cold buffer. Filters are transferred to scintillation vials and 5 ml of scintillation cocktail is added. The vials are shaken overnight and the radioactivity is counted by liquid scintillation spectroscopy. The assays are done in triplicate and all experiments are conducted at least three times.

[2] = cited from earlier work
[3] = system: glycine binding site of the NMDA receptor; conditions: cited from earlier work
[4] = in words; cited from earlier work
[5] = system: neurons; conditions: in words; cited from earlier work
[6] = system: glycine receptor; assay: binding to the glycine receptor (general statement); conditions: in words
[7] = target: PCP receptor; conditions: cited from earlier work
[8] = system: rodents; conditions: in words; cited from earlier work
[9] = system: pigeons; conditions: in words; cited from earlier work

With “5,6-dichloro-3-nitro-4-hydroxy-1,2-dihydroquinolin-2-one [Compound 16f]” the Ki [1] was 800 nM.

For `O=c1[nH]c2cc(Cl)cc(Cl)c2[nH]c1=O` [5,7-dichloro-QX], the “potency relative to 5,7-dichlorokynurenic acid (DCK)” value [1] was 20%.

In the case of `O=C(O)c1cc(O)c2c(Cl)cc(Cl)cc2n1` [5,7-dichlorokynurenic acid], the blood/brain barrier penetration ([2]; in vivo) is given as “cannot penetrate the blood/brain barrier” and the “affinity for the glycine binding site” value ([3]; in words) is given as “relatively high receptor binding affinity”.

In the case of `O=C(O)c1cc(O)c2ccc(Cl)cc2n1` [7-Cl-kynurenic acid], the blood/brain barrier penetration ([2]; in words) is listed as “cannot penetrate the blood/brain barrier” and the “affinity for the glycine binding site” value ([3]; in words) is listed as “relatively high receptor binding affinity”.

In the case of `O=C(O)[C@@H]1C[C@H](CP(=O)(O)O)CCN1` [CGS 19755], the “PCP-like behavioral side effects” value [4] is given as “adverse PCP-like behavioral side effects” and the neuroprotective efficacy [5] is given as “neuroprotective efficacy”.

In the case of `O=c1[nH]c2ccccc2c(O)c1[N+](=O)[O-]` [Compound 16a, 3-Nitro-4-hydroxy-1,2-dihydroquinolin-2-one], the “binding to the glycine receptor” value [6] is reported as “high binding”, the “selectivity for the glycine receptor” value [6] is reported as “highly selective” and the “potency relative to 5,7-dichlorokynurenic acid (DCK)” value [1] is reported as 1.4%. The Ki [1] was 18000 nM.

In the case of `O=c1[nH]c2ccc([N+](=O)[O-])cc2c(O)c1[N+](=O)[O-]` [Compound 16b, 3,6-Dinitro-4-hydroxy-1,2-dihydroquinolin-2-one], the “activity relative to 16a” value ([1]; in words) is reported as “about as active as 16a”.

With `O=c1[nH]c2cc(Cl)cc(Cl)c2c(O)c1[N+](=O)[O-]` [Compound 16c, 5,7-dichloro-3-nitro-4-hydroxy-1,2-dihydroquinolin-2-one] the “potency relative to 5,7-dichlorokynurenic acid (DCK)” value [1] was 19% and the Ki [1] was 1400 nM.

For `NC1CCN(O)C1=O` (stereo not drawn) [HA-966], the blood/brain barrier penetration ([2]; in words) is given as “sufficiently penetrates the blood/brain barrier”, the “affinity for the glycine binding site” value ([3]; in words) is given as “micromolar affinity” and the “mode of action at the glycine binding site” value ([3]; in words) is given as “partial agonist”.

For `O=C(O)C1CC2CC(CP(=O)(O)O)CCC2CN1` (stereo not drawn) [LY274614], the neuroprotective efficacy [5] is given as “neuroprotective efficacy”.

In the case of `C[C@]12N[C@H](Cc3ccccc31)c1ccccc12` [MK-801], the “PCP-like behavioral side effects” value [4] is listed as “adverse PCP-like behavioral side effects”, the neuroprotective efficacy [5] is listed as “neuroprotective efficacy both in vitro and in vivo” and the Kd [7] is listed as roughly 3 nM.

In the case of `c1ccc(C2(N3CCCCC3)CCCCC2)cc1` [PCP, phencyclidine], the “PCP-like behavioral effects in rodents / animal models” value [8] is given as “behavioral excitation (hyperlocomotion)”, the neuroprotective efficacy [5] is given as “neuroprotective efficacy both in vitro and in vivo” and the “PCP-like behavioral effect in pigeons” value [9] is given as “characteristic katalepsy”.

For `COc1ccc2c(c1)[C@]13CCCC[C@@H]1[C@H](C2)N(C)CC3` [dextromethorphan], the neuroprotective efficacy [5] is listed as “neuroprotective efficacy both in vitro and in vivo”.

In the case of `NCC(=O)O` [glycine], the Kd ([3]; used in Cheng and Prusoff equation, read-out: known affinity of glycine for the glycine binding site) is listed as 100 nM.

In the case of `O=C(O)c1cc2ccccc2[nH]1` [indole-2-carboxylic acid], the blood/brain barrier penetration ([2]; in words) is listed as “cannot penetrate the blood/brain barrier” and the “affinity for the glycine binding site” value ([3]; in words) is listed as “relatively high receptor binding affinity”.

In the case of `CNC1(c2ccccc2Cl)CCCCC1=O` (stereo not drawn) [ketamine], the neuroprotective efficacy [5] is listed as “neuroprotective efficacy both in vitro and in vivo”.

Source: patent publication US5622965A, “4-hydroxy-3-nitro-1,2-dihydroquinolin-2-ones and the use thereof as excitatory amino acid and glycine receptor antagonists” (priority 1993, dated 1997)
